This note sets out measurements from PubChem BioAssay (NCI).

What all share (test): inhibition of tumour cell growth, NCI panel, 48 h
Assay [1] deals with NCI/ADR-RES ovarian.
For assay [2], the system named is HCC-2998 colon.
In assay [3] the test system is SR leukemia.
Assay [4] has as its system UACC-62 melanoma.
The subject of assay [5] is MOLT-4 leukemia.
Assay [6] has as its system MALME-3M melanoma.
Assay [7] has as its system HS 578T breast.
For assay [8], the system named is HOP-62 NSCLC.
Assay [9] deals with SW-620 colon.
Assay [10] concerns UO-31 renal.

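All cell lines were grown in 96-well plates and treated with compound for 48 hours. GI50 is the concentration that inhibits growth by half. TGI denotes the concentration required for complete inhibition of growth.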

With `COc1ccc2[nH]c3c(C)c4c(c(C)c3c2c1)CN(C)C=C4`, the TGI in [1] was over 100 µM; in assay [2], 13.9 µM; in assay [3], 46.3 µM; in [4], 28.1 µM; in [5] it was 37.7 µM; in assay [6], 3.92 µM. Moreover, the TGI in assay [7] came to 1.48 µM; in assay [8] it was 3.53 µM; in [9] it was 18.3 µM; in [10] it was 81.1 µM.
For `COC(=O)NC1(NC(=O)OC)NC(=O)c2ccccc2N1`, the TGI in [1], in assay [2], in [3], in assay [4], in [5] and in assay [6] was over 100 µM each time. Also, the TGI in assay [7], in assay [8], in [9] and in [10] was over 100 µM in each case.
For the molecule `O=C(O)/C=C/c1c2ccc(=O)c(O)c-2oc2c(O)c(O)ccc12`, the TGI in assay [1] is over 100 µM; in [2], over 100 µM; in assay [3], over 100 µM; in assay [4], over 100 µM; in [5], 49.2 µM; in assay [6], over 100 µM. The TGI in [7] was over 100 µM; in assay [8], 61.1 µM; in [9], 49.6 µM; in [10], over 100 µM.
`CCN1C(=O)N(CC)C2C1NN=c1s/c(=C3\C(=O)Nc4ccccc43)c(=O)n12` (stereo not given): the GI50 is 5.67 µM in assay [1]; 1.47 µM in [2]; 0.292 µM in assay [3]; 0.371 µM in assay [4]; 0.549 µM in assay [5]; 0.557 µM in assay [6]. The GI50 is 0.347 µM in assay [7], 0.734 µM in [8], 0.409 µM in assay [9] and 1.09 µM in assay [10]. For the same molecule, the TGI in assay [1] was over 100 µM; in assay [2] it was 31.7 µM; in [3], over 62 µM; in [4], 23.9 µM; in [5], over 100 µM; in assay [6] it was 38.4 µM. The TGI in assay [7] was 17.7 µM; in assay [8] it was 25.8 µM; in assay [9], over 100 µM; in assay [10], over 100 µM.
On to `NCC(=O)Nc1ccc(Cl)cc1C(=O)c1ccc[nH]1`, for which the TGI in assay [1], in assay [2], in assay [3], in assay [4], in assay [5] and in assay [6] was over 100 µM in each case. Also, the TGI in assay [7], in assay [8], in [9] and in assay [10] was over 100 µM each time.
In the case of `O=C1c2ccccc2C(=O)c2c1ccc1conc21`, the TGI in assay [1] is 8.45 µM; in assay [2] it was 29.8 µM; in assay [3], 18.3 µM; in assay [4], 5.63 µM; in assay [5], 6.25 µM; in [6], 4.75 µM. In addition, the TGI in assay [7] turned out to be 38.6 µM; in assay [8], 9.11 µM; in assay [9] it was 4.36 µM; in [10] it was 9.53 µM.
